Results from patent US8728797B2, “Yeast membrane protein expression system and its application in drug screening” (priority 2001, dated 2014).
Converted amounts (≈) assume the structure as drawn. Marks after values point to notes of the source that are not given here.

Legend:
AD-ERG11 (Erg11p) [1] = assay: MIC in liquid microdilution assay, AD-ERG11; assay type: cell-based, S. cerevisiae; conditions: Saccharomyces cerevisiae
Experimental: (§1) The MICs of antifungal agents for S. cerevisiae cells were determined by a microdilution test based on the macrodilution reference method of the National Committee for Clinical Laboratory Standards. Cells (10 μl cell suspension, 2×10^5 cells/ml) were inoculated into 90 μl CSM-URA, buffered with 10 mM 2-(N-morpholino)ethanesulfonic acid (MES) and 18 mM N-2-hydroxyethylpiperazine-N′-2-ethanesulfonic acid (HEPES), pH 7.0 and containing 0.67% (w/v) yeast nitrogen base (YNB) in microtitre plate wells. For the uracil-requiring strain AD1-8u^− the medium was supplemented with 0.02% (w/v) uridine. The wells contained, in […], doubling dilutions of antifungal agents (final concentrations: fluconazole, 40-0.078 μg/ml; itraconazole and ketoconazole, 8-0.016 μg/ml). The microtitre plates were incubated at 30° C. for 48 h with shaking and then the growth of cells in individual wells (OD590) was measured with a microplate reader (EL 340, Bio-Tek, Winooski, Vt.). The MIC80 was the lowest concentration of drug that inhibited growth yield by at least 80% compared to a no-drug control.

AD-BEN^R (Ben^Rp) = assay: Disk diffusion assay, AD-BEN^R; assay type: cell-based, S. cerevisiae; conditions: AD-pABC as negative control, 30° C., 48 h
Experimental: (§2) The cells were spread on CSM-agar plates and exposed to the drugs or chemicals applied to filter disks and incubated at 30° C. for 48 h. The amounts of individual drugs are given in the Materials and Methods section of Example 3. Rhodamine 6G and rhodamine 123 were dissolved in ethanol and the other antifungals were dissolved in DMSO.
(§3) Drug susceptibility was measured using disk assays on CSM-URA plates (containing 1.5% w/v agar). Yeast cells (200 μl ml of 5×10^6 cells/ml) were spread on the plates. 10 μl of drug solution or solvent control were spotted onto sterile Whatman paper disks on the pre-spread plates. The following amounts (nmoles) of drugs were applied to individual disks: fluconazole, 633 (Pfizer Ltd., Sandwich, Kent, United Kingdom); itraconazole, 0.23 (Janssen); miconazole, 0.42 (Janssen); cycloheximide, 0.71 (Sigma); rhodamine 6G, 100 (Sigma, Penrose, Auckland, N. Z.); rhodamine 123, 125 (Sigma); cerulenin 4.5 (Sigma); 5-flucytosine 100 (Sigma); amphotericin B, 97 (E. R. Squibb & Sons, Princeton, N.J.); nystatin 65 (Sigma). Agar plates were incubated at 30° C. for 48 h or until clear growth inhibition zones were visible.

AD-CDR1 (Cdr1p) [2] = assay: Disk diffusion assay, AD-CDR1; assay type: cell-based, S. cerevisiae; conditions: AD-pABC as negative control, 30° C., 48 h
Experimental: as §2, §3

AD-ERG11 (Erg11p) [3] = assay: Disk diffusion assay, AD-ERG11; assay type: cell-based, S. cerevisiae; conditions: AD-pABC as negative control, 30° C., 48 h
Experimental: as §2, §3

AD-PDR5 (Pdr5p) [4] = assay: MIC in liquid microdilution assay, AD-PDR5; assay type: cell-based, S. cerevisiae; conditions: Saccharomyces cerevisiae
Experimental: as §1

[5] = tested on: S. cerevisiae AD1-8u^− hyper-expressing CDR1-1; assay: MIC, CDR1 allele 1 hyper-expressed; assay type: cell-based; conditions: Saccharomyces cerevisiae; hyper-expression of CDR1-1 allele
Experimental: as §1

[6] = tested on: SfiI-containing construct expressing Pdr5p; assay: MIC, SfiI-containing Pdr5p construct; assay type: cell-based, S. cerevisiae; conditions: low Pdr5p expression
Experimental: as §1

S. cerevisiae AD1-8/CDR2 = assay: MIC microdilution test, strain expressing Cdr2p; assay type: cell-based; conditions: Saccharomyces cerevisiae, AD18/CDR2, 30° C.
Experimental: as §1

[7] = tested on: S. cerevisiae AD1-8 sec6-4; assay: MIC microdilution test, sec6-4 host; assay type: cell-based; conditions: Saccharomyces cerevisiae, AD18SEC64, 30° C.
Experimental: as §1

AD-CDR1 (Cdr1p) [8] = assay: MIC in liquid microdilution assay, AD-CDR1; assay type: cell-based, S. cerevisiae; conditions: Saccharomyces cerevisiae
Experimental: as §1

S. cerevisiae AD1-8u^− = assay: MIC microdilution test, parental strain; assay type: cell-based; conditions: Saccharomyces cerevisiae; AD1-8u^− parental strain; 30° C., 48 h, pH 7.0
Experimental: as §1

AD-PDR5 (Pdr5p) [9] = assay: Disk diffusion assay, AD-PDR5; assay type: cell-based, S. cerevisiae; conditions: AD-pABC as negative control, 30° C., 48 h
Experimental: as §2, §3

[10] = tested on: S. cerevisiae AD1002 expressing C. albicans Cdr1p; assay: MIC microdilution test, strain expressing Cdr1p; assay type: cell-based
Experimental: as §1

[11] = tested on: initial construct in AD1-8u^− with barely detectable Cdr1p; assay: MIC, initial defective Cdr1p construct; assay type: cell-based, S. cerevisiae; conditions: Saccharomyces cerevisiae
Experimental: as §1

C. parapsilosis 425 = assay: Checkerboard chemosensitisation to fluconazole; assay type: cell-based; conditions: KN20 0-80 μM and FCZ 32 μg/ml tested, no chemosensitisation
Experimental: Checkerboard drug susceptibility assays were used to measure the chemosensitisation of cells to fluconazole by test compounds such as Pdr5p inhibitors. […] Cell inocula, growth conditions and the optical determination of growth were identical to standard liquid MIC determinations. The assays were conducted in 6 by 6 well arrays centred in a 96 well microtitre plate using buffered CSM-URA medium at pH 7.0, with fluconazole and/or peptide included in each well at the indicated concentration.

[12] = molecular target: S. cerevisiae plasma membrane H^+-ATPase (Pma1p) (Saccharomyces cerevisiae, UniProt P05030); assay: Plasma membrane H+-ATPase inhibition; assay type: biochemical; conditions: read-out: 150 for plasma membrane H^+-ATPase
Sequence of S. cerevisiae plasma membrane H^+-ATPase (Pma1p) (P05030 whole entry): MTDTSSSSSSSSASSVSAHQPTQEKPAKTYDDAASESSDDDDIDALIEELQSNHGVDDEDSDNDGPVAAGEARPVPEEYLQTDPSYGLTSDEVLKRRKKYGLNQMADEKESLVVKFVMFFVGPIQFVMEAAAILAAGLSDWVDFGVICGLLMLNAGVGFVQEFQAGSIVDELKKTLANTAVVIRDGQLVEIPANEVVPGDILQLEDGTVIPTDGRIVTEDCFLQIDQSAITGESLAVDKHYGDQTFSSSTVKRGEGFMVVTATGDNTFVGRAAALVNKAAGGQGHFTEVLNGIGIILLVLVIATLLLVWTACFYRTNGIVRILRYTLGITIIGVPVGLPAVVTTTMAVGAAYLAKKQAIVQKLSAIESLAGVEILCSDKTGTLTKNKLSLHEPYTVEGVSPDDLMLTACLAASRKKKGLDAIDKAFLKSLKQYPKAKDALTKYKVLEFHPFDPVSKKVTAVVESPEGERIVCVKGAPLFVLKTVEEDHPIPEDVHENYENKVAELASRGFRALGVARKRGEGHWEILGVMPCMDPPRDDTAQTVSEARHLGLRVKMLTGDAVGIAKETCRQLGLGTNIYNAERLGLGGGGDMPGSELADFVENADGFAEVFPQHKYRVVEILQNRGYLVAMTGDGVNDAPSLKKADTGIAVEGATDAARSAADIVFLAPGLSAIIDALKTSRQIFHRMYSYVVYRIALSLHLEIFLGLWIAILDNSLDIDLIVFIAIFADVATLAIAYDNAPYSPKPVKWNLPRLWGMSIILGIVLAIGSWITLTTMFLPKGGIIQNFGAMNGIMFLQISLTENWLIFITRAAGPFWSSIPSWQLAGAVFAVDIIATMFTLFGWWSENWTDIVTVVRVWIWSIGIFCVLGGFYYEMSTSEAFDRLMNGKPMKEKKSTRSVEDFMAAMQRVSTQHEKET

In the case of `OC(Cn1cncn1)(Cn1cncn1)c1ccc(F)cc1F` [fluconazole], the MIC (AD-ERG11 (Erg11p) [1]) is reported as 2 µg/mL (≈ 6.53 µM), the “resistance/sensitivity in disk diffusion assay” value (“resistance/sensitivity” below) (AD-BEN^R (Ben^Rp)) is reported as “resistant” and the “resistance/sensitivity” value (AD-CDR1 (Cdr1p) [2]) is reported as “resistances”. For the same compound, the “resistance/sensitivity” value (AD-ERG11 (Erg11p) [3]) was “modest resistance”, the MIC (AD-PDR5 (Pdr5p) [4]) was 400 µg/mL (≈ 1310 µM) and the MIC [5] was 400 µg/mL (≈ 1310 µM). The MIC [6] was < 40 mu.g/ml, the MIC80 (S. cerevisiae AD1-8/CDR2) was 64 µg/mL (≈ 209 µM) and the MIC80 [7] was 0.5 µg/mL (≈ 1.63 µM). The MIC (AD-CDR1 (Cdr1p) [8]) was 400 µg/mL (≈ 1310 µM), the MIC80 (S. cerevisiae AD1-8u^−) was 0.625 µg/mL (≈ 2.04 µM) and the “resistance/sensitivity” value (AD-PDR5 (Pdr5p) [9]) was “resistances”. The MIC80 ([10]; AD1002 expressing Cdr1p, 30° C., 48 h, pH 7.0) was 30 µg/mL (≈ 98 µM), the “fold increase in MIC” value ([10]; AD1002 relative to parental AD1-8u^−) was > 45 fold and the MIC [11] was 20 µg/mL (≈ 65.3 µM).
In the case of “D-octapeptide NH2-Asn-Trp-Trp-Lys-Val-Arg-Arg-Arg-CONH2 with a single 4-methoxy-2,3,6-trimethylbenzenesulphonyl (Mtr) substituent on one tryptophan sidechain; Pdr5p inhibitor [KN20]”, the “Fold-sensitisation by KN20 (For FCZ MIC)” value (C. parapsilosis 425) is reported as 1^b fold and the IC50 [12] is reported as 10 µM.
